Measurements: patent US20220333077A1, “Product for Therapy and Methods” (The University of Bristol, priority 2019, published 2022)
“Also recorded” adds a separate entry of the source. Residues, ends and D or L forms follow the SMILES beside them. *: point of attachment. Cbz = O=C(OCc1ccccc1)*

Experiments:
glutamine synthase = experiment: MG132 effect on glutamine synthase levels in GS (over)expressing erythroblasts, flow cytometry; format: cell-based, human; details: MG132 added at day 15, expression measured at day 19
Text: To investigate the degree to which exogenous enzyme expression is retained during erythropoiesis, four different enzymes were expressed in CD34+ haematopoietic stem cells (using lentivirus) and subsequently differentiated to reticulocytes: glutamine synthase (FIG. 8), adenosine deaminase (FIG. 9), L-asparaginase (FIG. 10), and uricase (FIG. 11). The exogenous proteins Uricase (a bacterial enzyme), human L-asparaginase (ASP) and human […] (ADA) were tagged with c-Myc to facilitate measurement of expression during differentiation by flow cytometry and western blot. GAPDH is an endogenous enzyme which was also blotted for in some cases. For human glutamine synthetase (GS) an antibody specific for this protein was used to detect expression by flow cytometry. The bar graphs in FIGS. 8-11 show expression of indicated enzymes during differentiation as assessed by flow cytometry across two different cultures. Western blots illustrate expression of the enzymes in in vitro derived reticulocytes. To explore whether ubiquitination enhances GS enzyme retention at the end of the culture, MG132 (a ubiquitin inhibitor) was added at day 15 to the GS (over)expressing erythroblasts. Expression was measured at day 19 by flow cytometry.

[1] = system: thymidine phosphorylase (TP); experiment: Effect of degradation inhibitors on TP expression in differentiating cTP cells; format: cell-based, human; details: day 14 cTP cells, 24 hours incubation; 10 μM leupeptin or 5 μM MG132
Text: The substantial loss of TP enzyme expression during differentiation could mean that TP is being actively degraded during terminal differentiation. To test whether exogenous TP degradation during differentiation is due to ubiquitination or lysosomal degradation, we subjected the day 14 (orthochromatic erythrocytes) cTP cells to an ubiquitination inhibitor MG132, or a lysosomal degradation inhibitor, leupeptin (Tsubuki, S., et al., J Biochem, 1996, 119(3), p. 572-6; Hershko, A. and A. Ciechanover, Annu Rev Biochem, 1982, 51, p. 335-64). TP expression was first measured on day 14 and then 24 hours after incubation with inhibitors or the vehicle control.
As previously described (Griffiths, R. E., et al., Blood, 2012. 119(26), p. 6296-306), CD34+ haemopoietic stem cells (HSC) here isolated from human blood donor mononuclear cells or from thawed cryopreserved cord blood units by magnetic bead separation according to manufacturer's instructions (Miltenyi Biotech Ltd, Bisley UK). CD34+ cells were grown at a density of 2×10^5 cells/ml using a base medium consisting of IMDM (Source BioScience) containing 3% (v/v) AB Serum, 2 mg/ml HSA, 10 μg/ml Insulin, 3U/ml heparin, 500 μg/ml transferrin and 3U/ml Epo. […] Cells where fixed with paraformaldehyde and analysed by flow cytometry.

[2] = system: in vitro cultured erythroid cells; format: cell-based; details: 0.5 mM thymidine added early, e.g. Day 0 of differentiation; data not shown
[3] = molecular target: T1, thymidine phosphorylase (TP) (Homo sapiens, UniProt P19971); experiment: Thymidine supplementation of differentiation media, TP enzyme abundance in reticulocytes; format: cell-based
T1 construct: expressed in transfected cells; host or cells: CD34+-derived cultured human erythroid progenitors (cTP) and BEL-A erythroid cells (bTP), lentiviral XLG3 vector
T1 sequence (P19971 11-482): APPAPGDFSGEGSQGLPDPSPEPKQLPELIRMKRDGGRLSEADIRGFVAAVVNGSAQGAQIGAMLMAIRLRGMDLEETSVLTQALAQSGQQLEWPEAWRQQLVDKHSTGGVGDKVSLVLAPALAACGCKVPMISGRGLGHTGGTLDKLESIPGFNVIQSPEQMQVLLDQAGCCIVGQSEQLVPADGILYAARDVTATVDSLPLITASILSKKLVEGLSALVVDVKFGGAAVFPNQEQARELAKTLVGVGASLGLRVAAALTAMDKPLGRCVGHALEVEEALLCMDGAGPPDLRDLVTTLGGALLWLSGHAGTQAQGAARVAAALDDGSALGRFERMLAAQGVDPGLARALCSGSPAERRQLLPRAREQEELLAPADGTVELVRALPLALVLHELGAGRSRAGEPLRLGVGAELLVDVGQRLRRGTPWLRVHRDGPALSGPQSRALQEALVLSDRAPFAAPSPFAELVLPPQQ
Text: After further examination of the molecular human TP structure we observed that the 2 ubiquitination sites that correspond with murine TP, would only be available for ubiquitination in the absence of substrate.
Reticulocytes were identified by gating upon Hoechst-negative population.

| SMILES | glutamine synthase levels in reticulocytes (glutamine synthase) | effect on TP degradation during differentiation [1] | cell death and differentiation [2] | TP enzyme abundance compared to standard differentiation media ([3]; bTP reticulocytes, 0.5 mM thymidine daily from day 6 (polychromatic erythroblast stage)) | TP enzyme abundance compared to standard differentiation media ([3]; cTP reticulocytes, 0.5 mM thymidine daily from day 14 (polychromatic erythroblast stage)) | concentration of active TP in the reticulocyte ([3]; thymidine added to the media, un-mutated ubiquitination site) |
| --- | --- | --- | --- | --- | --- | --- |
| CC(C)C[C@@H](C=O)NC(=O)[C@H](CC(C)C)NC(=O)[C@H](CC(C)C)NC(=O)OCc1ccccc1 [MG132] (Cbz-Leu-Leu-Leu-aldehyde) | increases glutamine synthase levels in reticulocytes | protected TP from degradation during differentiation; also recorded: inhibition of degradation was observed | – | – | – | – |
| CC(=O)N[C@@H](CC(C)C)C(=O)N[C@@H](CC(C)C)C(=O)N[C@H](C=O)CCCNC(=N)N [leupeptin] | – | did not impair degradation | – | – | – | – |
| Cc1cn([C@H]2C[C@H](O)[C@@H](CO)O2)c(=O)[nH]c1=O [thymidine] | – | – | increase in cell death and inhibition of differentiation | doubled | doubled | roughly double |
